We go through 1 compound from article PMC10587737, “Dracorhodin targeting CMPK2 attenuates inflammation: A novel approach to sepsis therapy” (Clinical and Translational Medicine, 2023).

The structures appear in SMILES notation. Numbering of substitutions follows the chain as printed.

One assay deals with CMPK2 mutant at K282. The assay is described as follows: ADP-GLO kinase activity of CMPK2 K282 mutant. Type of assay: biochemical, human. The procedure: (§1) Human CMPK2 and K265, K282 and K320 mutated CMPK2 cDNA were cloned and inserted into the pTT5 vector, and the constructed plasmid was amplified by the DH5α strain. The C‐terminus of the cDNA was fused with a 6× His tag, and the N‐terminus was truncated by 22 amino acids (Figure 1B–F and Supporting Information Figure S5A,B). When the free‐style 293‐F cells reached the proper density, approximately 1 mg of expression plasmid was premixed with 3 mg polyethylenimine in UltraFectin medium and incubated prior to transfection. This mixture was then added to the appropriate amount of fresh cell culture medium, incubated for 30 min and collected after 48 h.
CMPK2 activity was measured by the ADP‐GLO kinase assay according to the guidelines specified in the manufacturer's instructions. In the activity assay, the amount of ADP formed in the CMPK2 reaction was equal to the ATP consumption and proportional to the increase in luminescence generated in the luciferase reaction, which is the experimental principle shown in Figure 1I.
Background: In ADP-Glo the light output rises with the ADP produced.

In assay [1] the target is T1, purified CMPK2 protein (WT) (Homo sapiens, UniProt Q5EBM0).
T1 construct: the N‐terminus was truncated by 22 amino acids; 6xHis (C); made in house; host or cells: FreeStyle 293-F cells (pTT5 vector)
T1 sequence (Q5EBM0 22-449): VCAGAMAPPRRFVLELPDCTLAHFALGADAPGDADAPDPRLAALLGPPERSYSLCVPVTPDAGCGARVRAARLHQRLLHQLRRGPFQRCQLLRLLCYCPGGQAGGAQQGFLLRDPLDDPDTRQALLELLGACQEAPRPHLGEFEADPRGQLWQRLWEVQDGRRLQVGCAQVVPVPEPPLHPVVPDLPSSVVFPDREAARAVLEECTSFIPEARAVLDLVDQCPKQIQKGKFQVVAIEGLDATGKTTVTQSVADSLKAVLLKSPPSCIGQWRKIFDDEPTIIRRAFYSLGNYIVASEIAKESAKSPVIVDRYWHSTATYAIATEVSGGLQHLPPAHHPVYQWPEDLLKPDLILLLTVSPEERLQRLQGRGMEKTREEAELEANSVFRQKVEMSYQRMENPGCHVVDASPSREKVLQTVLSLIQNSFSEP
The assay can be described thus: Microscale thermophoresis (MST) binding to CMPK2. As for the experimental part:
The MST assay is an emerging technique used to quantitatively elucidate binding. The binding parameter between CMPK2 and DP was measured using MST on a Monolith NT.115 system (Germany). CMPK2 was fluorescently labeled with the Monolith NT Protein Labeling Kit RED (L018, NanoTemper Technologies GmbH, Munich, Germany) according to the manufacturer's instructions. The Monolith NT.115 system was used with Monolith NT.115 standard capillaries (M0-[…]). MST assay buffer was used to dilute the labeled CMPK2 to 2 μM. Sixteen dilutions (1:1) of the ligand were prepared using the same buffer, starting at a concentration of 10 μM. An equivalent volume of the labeled CMPK2 was added to each of the dilutions and loaded into Monolith NT.115 standard treated capillaries (Nano Temper Technologies), which were used to measure the MST trace at a temperature of 27°C. The experimental parameters were adjusted to medium MST power and 40% LED/excitation power. The binding and dissociation constants (Kd) were evaluated and calculated using M0-Affinity analysis software version 2.1.3 (Nano Temper Technologies) for the ligand.
(MST reads how a fluorescent partner responds to local heating, with and without ligand.)

Assay [2] concerns CMPK2 expression in BMDMs. The assay can be described thus: CMPK2 protein and mRNA expression in BMDMs. Type of assay: cell-based, mouse. The procedure: Cells were lysed in NP-40 buffer containing a protease inhibitor cocktail (Roche, 11836153001) and a phosphatase inhibitor cocktail (Sigma-Aldrich, P5726). Protein concentrations were quantified using a BCA Protein Assay Kit (Beyotime, 5000T P0011). Equal amounts of protein were separated by SDS-PAGE and transferred onto nitrocellulose membranes. The membranes were then incubated with antibodies against CMPK2, NLRP3, ASC, pro-caspase-1, pro-IL-1β, GAPDH, caspase-1 and IL-1β, followed by incubation with the appropriate secondary HRP-conjugated antibodies and development with ECL.

The test system of the next assay is BMDMs. The assay can be described thus: Mitochondrial membrane potential (JC-1) and mtROS (MitoSOX). The following applies: DP 12 h, LPS priming, ATP. Type of assay: cell-based, mouse. The procedure: The treated bone marrow‐derived macrophages (BMDMs) and JC‐1 working solution were incubated in a cell incubator for 30 min. At the end of the warm incubation, the cells were washed three times with PBS, and images were captured with a Harmony 4.8 (PerkinElmer). Meanwhile, the stained BMDMs were quantified by flow cytometry.
For mitochondrial ROS (mtROS) measurement, according to the instruction guidelines, a diluted 5 μM MitoSOX working solution was incubated with treated BMDMs in a cell incubator for 10 min according to the instructional guidelines. The BMDMs were gently washed with warm buffer to remove the working solution. The images were captured using Harmony 4.8 (PerkinElmer). Meanwhile, the stained BMDMs were quantified by flow cytometry.

A further assay addresses T2, CMPK2^Lys265 protein (Homo sapiens, UniProt Q5EBM0, K265A).
T2 construct: the N‐terminus was truncated by 22 amino acids; 6xHis (C); made in house; host or cells: FreeStyle 293-F cells (pTT5 vector)
T2 sequence (Q5EBM0 22-449 K265A): T1 sequence (Q5EBM0 22-449) with K244A
The assay is described as follows: MST binding to CMPK2 Lys265 mutant. As to conditions: Lys265 mutated. As for the experimental part:
as §1
The MST assay is an emerging technique used to quantitatively elucidate binding. The binding parameter between CMPK2 and DP was measured using MST on a Monolith NT.115 system (Germany). CMPK2 was fluorescently labeled with the Monolith NT Protein Labeling Kit RED (L018, NanoTemper Technologies GmbH, Munich, Germany) according to the manufacturer’s instructions. The Monolith NT.115 system was used with Monolith NT.115 standard capillaries (M0-K022). MST assay buffer was used to dilute the labeled CMPK2 to 2 μM. […] The binding and dissociation constants (Kd) were evaluated and calculated using M0-Affinity analysis software version 2.1.3 (Nano Temper Technologies) for the ligand.

Usually Kd stands for the free concentration of one partner at which half of the binding sites on the other are occupied at equilibrium, for simple one-to-one binding.

Consider `COc1c2ccc(-c3ccccc3)oc-2cc(=O)c1C` [compound 73, Dracohodin perochlorate], for which the “kinase activity of the mutant at K282” value on CMPK2 mutant at K282 was “slight inhibitory effect”. For the same compound, the Kd in assay [1] was determined as 350 ± 34.9 nM. For the same compound, in assay [2], the “mRNA expression level of Cmpk2” value was “decreased”. For the same compound, in assay [2] (DP 2.5, 5, 10 μM), the “protein expression of CMPK2” value is given as “dose‐dependently inhibited”. Also, in the assay with BMDMs, the mitochondrial membrane potential result is reported as “significantly reversed” and the mtROS production entry is given as “inhibited”. The “binding (Kd by MST)” value at CMPK2^Lys265 protein is given as “no binding”.
